Data set [1] deals with Rattus norvegicus. The data set is described as follows: Antiinflammatory activity in Wistar rat assessed as inhibition of carrageenan-induced paw edema at 10.44 mg/kg, po administered 1 hr before carrageenan challenge measured at 3 hrs by plethysmometer. The class given is functional. A general note: In the carrageenan paw model, swelling and tenderness develop within hours.

For data set [2], the system named is Rattus norvegicus. The data set is described as follows: Antiinflammatory activity in Wistar rat assessed as inhibition of carrageenan-induced paw edema at 10.44 mg/kg, po administered 1 hr before carrageenan challenge measured at 1 hr by plethysmometer. The class given is functional.
Data set [3] relates to Mus musculus. As to the kind of experiment: Analgesic activity in BALB/c mouse assessed as inhibition of acetic acid-induced writhing response for 15 mins at 20.88 mg/kg, po. The class given is functional. The following applies: 0.25 h. A general note: Writhing tests count abdominal constrictions after an irritant is injected.
For data set [4], the target named is T1, Prostaglandin G/H synthase 2 (Oryctolagus cuniculus, UniProt O02768).
T1 sequence (O02768 whole entry): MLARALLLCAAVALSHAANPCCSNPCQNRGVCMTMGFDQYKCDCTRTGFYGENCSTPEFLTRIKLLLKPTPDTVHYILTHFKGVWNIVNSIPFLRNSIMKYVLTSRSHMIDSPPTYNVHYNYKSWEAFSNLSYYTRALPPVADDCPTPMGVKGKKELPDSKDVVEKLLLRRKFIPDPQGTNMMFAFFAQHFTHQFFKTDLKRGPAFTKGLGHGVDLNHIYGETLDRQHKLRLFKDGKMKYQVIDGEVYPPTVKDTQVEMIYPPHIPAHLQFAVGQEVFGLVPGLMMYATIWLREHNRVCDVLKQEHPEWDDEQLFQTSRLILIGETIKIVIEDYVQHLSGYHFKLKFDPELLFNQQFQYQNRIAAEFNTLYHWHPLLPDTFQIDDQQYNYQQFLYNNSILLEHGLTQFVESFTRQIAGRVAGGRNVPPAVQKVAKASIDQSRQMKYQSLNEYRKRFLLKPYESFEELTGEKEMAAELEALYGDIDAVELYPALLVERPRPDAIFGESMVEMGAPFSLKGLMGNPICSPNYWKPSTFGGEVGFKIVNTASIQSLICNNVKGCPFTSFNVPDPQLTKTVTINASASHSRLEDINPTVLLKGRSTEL
As to the kind of experiment: Inhibition of COX-2 in rabbit peripheral venous blood assessed as formation of 12-hydroxyheptadecatrienoic acid after 24 hrs in by HPLC presence of calcium ionophore […] and lipopolysaccharide. The class given is tissue-based.

Data set [5] concerns Rattus norvegicus. The data set is described as follows: Ulcerogenic effect in Wistar rat assessed as gastric ulcer area at 10.44 mg/kg, po administered for 7 days by microscopy. The class given is toxicity, organism-based, Stomach. Also on record: dose 10.44 mg/kg, route oral. To be noted: in vivo, 168 h.
Data set [6] concerns Rattus norvegicus. As to the kind of experiment: Antiinflammatory activity in Wistar rat assessed as inhibition of carrageenan-induced paw edema at 10.44 mg/kg, po administered 1 hr before carrageenan challenge measured at 6 hrs by plethysmometer. The class given is functional.
A short description of data set [7]: Inhibition of 5-LOX in rabbit peripheral venous blood assessed as formation of […] after 30 mins by HPLC. The class given is tissue-based, Oryctolagus cuniculus.
The species entered for a further data set is Oryctolagus cuniculus. The data set is described as follows: Selectivity ratio, IC50 for COX-1in rabbit peripheral venous blood to IC50 for COX-2 in rabbit peripheral venous blood. The class given is tissue-based.
The target of data set [8] is T2, Prostaglandin G/H synthase 1 (Oryctolagus cuniculus, UniProt O97554).
T2 sequence (O97554 whole entry): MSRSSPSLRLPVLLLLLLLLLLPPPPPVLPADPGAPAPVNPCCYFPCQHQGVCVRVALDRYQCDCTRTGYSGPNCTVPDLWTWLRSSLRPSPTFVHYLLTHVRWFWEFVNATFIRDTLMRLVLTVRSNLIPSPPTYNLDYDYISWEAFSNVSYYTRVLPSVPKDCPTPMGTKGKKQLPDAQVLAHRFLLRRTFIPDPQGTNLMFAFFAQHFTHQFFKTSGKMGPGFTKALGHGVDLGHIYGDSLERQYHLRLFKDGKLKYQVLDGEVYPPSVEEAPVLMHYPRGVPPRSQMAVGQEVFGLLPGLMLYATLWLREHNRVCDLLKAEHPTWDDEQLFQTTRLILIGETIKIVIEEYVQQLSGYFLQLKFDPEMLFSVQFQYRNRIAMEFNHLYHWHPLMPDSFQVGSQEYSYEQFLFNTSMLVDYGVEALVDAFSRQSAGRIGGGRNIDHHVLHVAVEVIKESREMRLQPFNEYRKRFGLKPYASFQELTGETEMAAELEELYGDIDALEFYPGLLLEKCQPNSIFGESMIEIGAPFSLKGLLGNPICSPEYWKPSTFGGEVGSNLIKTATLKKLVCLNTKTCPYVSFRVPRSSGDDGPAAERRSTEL
The data set is described as follows: Inhibition of COX-1 in rabbit peripheral venous blood assessed as formation of 12-hydroxyheptadecatrienoic acid after 24 hrs by HPLC in presence of calcium ionophore A23187.

Data set [9] has as its system Rattus norvegicus. The data set is described as follows: Antiinflammatory activity in Wistar rat assessed as inhibition of carrageenan-induced paw edema at 9.08 mg/kg, po administered 1 hr before carrageenan challenge measured at 6 hrs by plethysmometer. The class given is functional.
The test system of data set [10] is Rattus norvegicus. As to the kind of experiment: Antiinflammatory activity in Wistar rat assessed as inhibition of carrageenan-induced paw edema at 9.08 mg/kg, po administered 1 hr before carrageenan challenge measured at 1 hr by plethysmometer. The class given is functional.
For data set [11], the system named is Rattus norvegicus. As to the kind of experiment: Antiinflammatory activity in Wistar rat assessed as inhibition of carrageenan-induced paw edema at 9.08 mg/kg, po administered 1 hr before carrageenan challenge measured at 3 hrs by plethysmometer. The class given is functional.
The subject of data set [12] is Mus musculus. As to the kind of experiment: Analgesic activity in BALB/c mouse assessed as inhibition of acetic acid-induced writhing response for 15 mins at 18.16 mg/kg, po. The class given is functional. The following applies: 0.25 h.
The subject of data set [13] is Rattus norvegicus. As to the kind of experiment: Ulcerogenic effect in Wistar rat assessed as gastric ulcer area at 9.08 mg/kg, po administered for 7 days by microscopy. The class given is toxicity, organism-based, Stomach. Also on record: dose 9.08 mg/kg, route oral. The following applies: in vivo, 168 h.
The subject of data set [14] is Rattus norvegicus. As to the kind of experiment: Antiinflammatory activity in Wistar rat assessed as inhibition of carrageenan-induced paw edema at 11.48 mg/kg, po administered 1 hr before carrageenan challenge measured at 1 hr by plethysmometer. The class given is functional.
Data set [15] concerns Rattus norvegicus. As to the kind of experiment: Antiinflammatory activity in Wistar rat assessed as inhibition of carrageenan-induced paw edema at 11.48 mg/kg, po administered 1 hr before carrageenan challenge measured at 6 hrs by plethysmometer. The class given is functional.
Data set [16] has as its system Rattus norvegicus. The data set is described as follows: Ulcerogenic effect in Wistar rat assessed as gastric ulcer area at 11.48 mg/kg, po administered for 7 days by microscopy. The class given is toxicity, organism-based, Stomach. Also on record: dose 11.48 mg/kg, route oral. The following applies: in vivo, 168 h.
Data set [17] has as its system Rattus norvegicus. As to the kind of experiment: Antiinflammatory activity in Wistar rat assessed as inhibition of carrageenan-induced paw edema at 11.48 mg/kg, po administered 1 hr before carrageenan challenge measured at 3 hrs by plethysmometer. The class given is functional.
Data set [18] relates to Mus musculus. As to the kind of experiment: Analgesic activity in BALB/c mouse assessed as inhibition of acetic acid-induced writhing response for 15 mins at 22.96 mg/kg, po. The class given is functional. The following applies: 0.25 h.

Experimental findings from ChEMBL document CHEMBL1287762, “Synthesis and biological evaluation of 3-[4-(amino/methylsulfonyl)phenyl]methylene-indolin-2-one derivatives as novel COX-1/2 and 5-LOX inhibitors” (Bioorg Med Chem Lett, 2010) are described below.

Usually inhibition in vivo stands for the change of the read-out against control, counted positive when it falls. What is called IC50 is the concentration needed to halve the response being measured.

Each structure is given as a SMILES string.

Take `CS(=O)(=O)c1ccc(/C=C2/C(=O)Nc3ccc([N+](=O)[O-])cc32)cc1`: the inhibition in vivo at 10.44 mg/kg with Rattus norvegicus [1] amounted to 33.3%; in the data set on Rattus norvegicus [2], 28.6%; in the data set on Rattus norvegicus [6] it was 23.5%. The inhibition in vivo at 20.88 mg/kg in the data set with Mus musculus [3] is 73.2%. Further, the IC50 in data set [4] was 3.29 µM; in data set [7], 3.91 µM; in data set [8] it was 0.5 µM. In addition, the Activity in the data set on Rattus norvegicus [5] stood at 0.81 mm2. Moreover, the Ratio IC50 in the data set listed under Oryctolagus cuniculus worked out at 0.15.
As to `CS(=O)(=O)c1ccc(/C=C2/C(=O)Nc3ccccc32)cc1`, the inhibition in vivo at 9.08 mg/kg in the data set with Rattus norvegicus [9] turned out to be 21.6%; with Rattus norvegicus [10], 28.6%; in the data set with Rattus norvegicus [11], 38.9%. The figures for the IC50 in data set [4], in [7] and in data set [8] were 5.52 µM, 9.51 µM and 9.32 µM, respectively. The inhibition in vivo at 18.16 mg/kg in the data set with Mus musculus [12] stood at 54.4%. Besides, the Ratio IC50 in the data set listed under Oryctolagus cuniculus is 1.69. The Activity with Rattus norvegicus [13] is recorded as 0.56 mm2.
In the case of `CS(=O)(=O)c1ccc(/C=C2/C(=O)Nc3ccc(Br)cc32)cc1`, the inhibition in vivo at 11.48 mg/kg with Rattus norvegicus [14] turned out to be 33.3%; in the data set on Rattus norvegicus [15], 29.4%; in the data set on Rattus norvegicus [17], 47.2%. Further, the IC50 in data set [4] is 0.1 µM; in data set [7], 0.56 µM; in [8], 0.11 µM. Further, the Activity in the data set with Rattus norvegicus [16] was determined as 0.44 mm2. Moreover, in the data set with Mus musculus [18], the inhibition in vivo at 22.96 mg/kg stood at 82.8%. Besides, the Ratio IC50 in the data set filed under Oryctolagus cuniculus was 1.1.
